In ChEMBL document CHEMBL1629424, “Does conjugation of antioxidants improve their antioxidative/anti-inflammatory potential?” (Bioorg Med Chem, 2010):
Active and inactive are the calls of the source. No cut-off for these calls is given here.

Legend:
[1] = Antioxidant activity of the compound assessed as reducing activity of DPPH at 0.1 mM after 60 mins; format: functional; design: scale not given: the % may be the effect or the level left
[2] = Cytotoxicity against RAMEC assessed as cell viability after 24 hrs by MTT assay; settings: Rattus norvegicus
Glycine max [3] = test: Inhibition of soybean lipoxygenase at 0.1 mM
[4] = Antioxidant activity of the compound assessed as reducing activity of DPPH at 0.1 mM after 20 mins; format: functional; design: scale not given: the % may be the effect or the level left
Glycine max [5] = test: Inhibition of soybean lipoxygenase at 0.05 mM
[6] = Antioxidant activity against AAPH-induced lipid peroxidation assessed as inhibition of conjugated diene hydroperoxide production at 0.1 mM by UV spectrophotometry; format: functional
Rattus norvegicus = test: Antiinflammatory activity in Fisher rat assessed as inhibition of carrageenan-induced paw oedema at 0.01 mmol/kg, po measured after 3.5 hrs; format: functional
[7] = Inhibition of soybean lipoxygenase; design: species or system Glycine max

Structure (SMILES)	Activity [1]	IC50 [2] [µM]	inhibition (Glycine max [3])	Activity [4]	inhibition (Glycine max [5])	inhibition [6]	inhibition in vivo at 10 µmol/kg (Rattus norvegicus) [%]	IC50 [7] [µM]
CC(Cc1ccc(O)c(O)c1)C(C)Cc1ccc(O)c(O)c1 (centres undefined)	83%	–	–	–	–	–	–	–
CC1=C(/C=C/C(C)=C/C=C/C(C)=C/C(=O)NCCCCCCCCCCCCNC(=O)/C=C(C)/C=C/C=C(C)/C=C/C2=C(C)CCCC2(C)C)C(C)(C)CCC1	13.4%	2.8	23%	inactive	inactive	41%	–	–
COc1cc(C)c(/C=C/C(C)=C/C=C/C(C)=C/C(=O)O)c(C)c1C [ACITRETIN]	inactive	14.6	1%	inactive	inactive	85%	63	–
O=C(O)/C=C/c1ccc(O)c(O)c1 [CAFFEIC ACID]	6%	–	–	5.5%	–	17.5%	–	600
N[C@@H](Cc1ccc(O)c(O)c1)C(=O)NCCCNCCCCNCCCNC(=O)[C@@H](N)Cc1ccc(O)c(O)c1	96%	–	32%	89%	inactive	71%	–	–
O=C(O)/C=C/C(=O)n1cc(C(=O)Nc2ccccc2)c2ccccc21	inactive	–	–	1%	–	85%	11	52.4
Cc1oc2c(C)c3oc(=O)cc(C)c3cc2c1/C=C/C(=O)NCCCNCCCCNCCCNC(=O)/C=C/c1c(C)oc2c(C)c3oc(=O)cc(C)c3cc12	54%	–	57%	41%	inactive	33%	–	–
N[C@@H](Cc1ccc(O)c(O)c1)C(=O)O	76%	–	23%	76%	inactive	65%	–	–
COc1ccc2c(c1)c(CC(=O)O)c(C)n2C(=O)c1ccc(Cl)cc1 [INDOMETHACIN]	–	–	–	–	–	–	47	–
NCCc1ccc(O)c(O)c1 [DOPAMINE]	86%	–	–	86%	–	43%	13	100
COc1cc(C)c(/C=C/C(C)=C/C=C/C(C)=C/C(=O)NCCc2ccc(O)c(O)c2)c(C)c1C	79%	–	–	79%	–	10%	13.7	87
COc1cc(C)c(/C=C/C(C)=C/C=C/C(C)=C/C(=O)NCCCNCCCCNCCCNC(=O)/C=C/c2c(C)oc3c(C)c4oc(=O)cc(C)c4cc23)c(C)c1C	inactive	–	–	inactive	–	31%	–	41.5
COc1cc(C)c(/C=C/C(C)=C/C=C/C(C)=C/C(=O)NCCCNCCCCNCCCNC(=O)/C=C(C)/C=C/C=C(C)/C=C/c2c(C)cc(OC)c(C)c2C)c(C)c1C	38%	4.7	75%	26%	inactive	97%	19	–
Cc1c(C)c2c(c(C)c1O)CCC(C)(C(=O)O)O2 (centres undefined)	–	–	–	–	–	63%	–	–
COc1ccc(/C=C/C(=O)O)cc1OC	10%	–	23%	9%	inactive	56%	–	–
COc1ccc(/C=C/C(=O)NCCOCCOC(=O)/C=C/C(=O)n2cc(C(=O)Nc3ccccc3)c3ccccc32)cc1OC	12%	–	–	inactive	–	inactive	–	33.5
Cc1oc2c(C)c3oc(=O)cc(C)c3cc2c1/C=C/C(=O)O	11%	–	9%	11%	inactive	73%	–	–
CC1=C(/C=C/C(C)=C/C=C/C(C)=C/C(=O)O)C(C)(C)CCC1 [TRETINOIN]	23%	18.3	inactive	11%	inactive	75%	11	–
COc1ccc(/C=C/C(=O)NCCCNCCCCNCCCNC(=O)/C=C/c2ccc(OC)c(OC)c2)cc1OC	58%	11.3	–	52%	–	100%	42	62
O=C(O)CCc1ccc(O)c(O)c1	100%	–	16%	100%	inactive	47%	–	–
O=C1O[C@H]([C@@H](O)CO)C(O)=C1O	100%	–	–	99%	–	–	–	–
N[C@@H](Cc1ccc(O)c(O)c1)C(=O)NCCc1ccc(O)c(O)c1	92%	–	–	92%	–	inactive	–	81.5
NCCCNCCCCNCCCN	4%	–	inactive	4%	inactive	inactive	–	–
Cc1oc2c(C)c3oc(=O)cc(C)c3cc2c1/C=C/C(=O)OC(C)(C)C	11%	2.9	–	11%	–	80%	46	9.4
CC1=C(/C=C/C(C)=C/C=C/C(C)=C/C(=O)NCCCNCCCCNCCCNC(=O)/C=C(C)/C=C/C=C(C)/C=C/C2=C(C)CCCC2(C)C)C(C)(C)CCC1	5%	2.6	76%	inactive	inactive	58%	40	–
O=C(CCc1ccc(O)c(O)c1)NCCCNCCCCNCCCNC(=O)CCc1ccc(O)c(O)c1 [KUKOAMINE A]	100%	3.5	–	96%	–	72%	43	9.5
CCCCNC(=O)/C=C/c1c(C)oc2c(C)c3oc(=O)cc(C)c3cc12	8.4%	–	24%	inactive	inactive	66%	–	–
COc1cc(C)c(/C=C/C(C)=C/C=C/C(C)=C/C(=O)NCc2ccccc2)c(C)c1C	2%	–	–	inactive	–	45%	3.6	40.5
COc1ccc(/C=C/C(=O)NCCOCCOC(=O)/C=C/c2c(C)oc3c(C)c4oc(=O)cc(C)c4cc23)cc1OC	15%	12.9	–	inactive	–	98%	9	65
CC1=C(/C=C/C(C)=C/C=C/C(C)=C/C(=O)NCCCNCCCCNCCCNC(=O)/C=C/c2c(C)oc3c(C)c4oc(=O)cc(C)c4cc23)C(C)(C)CCC1	38%	–	43%	11%	inactive	45%	–	–
